Laboratory results as given in patent US20170216252A1, “ANTI-BACTERIAL PYRUVATE KINASE MODULATOR COMPOUNDS, COMPOSITIONS, USES AND METHODS” (SIMON FRASER UNIVERSITY, priority 2014, published 2017).
Converted amounts (≈) assume the structure as drawn.

Legend:
Pharmacokinetic study = type: in vivo, female CD-1 mice; settings: female, CD-1, mouse, plasma
Procedure: (§1) The MTD and pharmacokinetic profiles of compounds 123 and 178 administered IV or PO were determined in female CD-1 mice (6-8 weeks of age). Compounds were dissolved in 3% DMSO/6% Solutol® HS 15/10 mM PB (pH7.4) for IV administration and in 3% DMSO/6% Solutol® HS 15/water for oral administration.
For the pharmacokinetic study, animals were injected with their respective compound at the dose indicated in 11. At their respective time point, animals were deeply anesthetized with isoflurane and then asphyxiated with CO2. Cardiac puncture blood was collected immediately following death, and the blood processed to generate plasma.

S. aureus ATCC 29123 = assay: Neutropenic mouse Staphylococcus aureus thigh infection model; type: in vivo; settings: for median CFU/thigh: 24 h endpoint
Procedure: The antimicrobial activity of compound 178 against S. aureus ATCC 29123 was tested in vivo using the neutropenic mouse Staphylococcus aureus thigh infection model. […] Animals were individually monitored for adverse reactions for 30 min post-infection. […] Vancomycin was administered as a solution in PBS. The test compounds were administered as outlined in Table 12 at 2 and 8 hours post-infection and animals were individually monitored for adverse reactions for 30 min after each injection. All animals were then monitored hourly from 20 hours post infection to the endpoint (t=24 hr post infection). At the indicated timepoint, animals were sacrificed and the injected thigh collected. Quantitative enumeration of bacterial load was determined by plating serial dilutions from homogenized thigh muscles. Homogenized muscle was in a total of 2 mL volume, from which a 1 in 10 dilution was prepared (100 μL into 900 μL saline). From this a series of dilutions were prepared and plated on Mueller Hinton agar plates. […] At the end of this time colony counts were determined and the final CFU per mL calculated.

VRE#2 (2010A) = assay: Broth microdilution MIC; type: cell-based, vancomycin-resistant Enterococcus; settings: Enterococcus; VRE#2 (2010A); read-out: MIC (μg/mL) F
Procedure: (§2) The antimicrobial activities of PK inhibitor candidates were determined using the 96-well microtiter standard 2-fold serial broth microdilution method as described by CLSI (formerly NCCLS) with the various gram-positive and gram-negative bacteria species mentioned above. Bacteria from a single colony were grown, overnight in either BHI Broth (VRE), mueller hinton broth (S. aureus 29213; MRSA USA400) or L-broth (E. coli, P. aeruginosa, S. typhimuriu, K. Pneumonia and A. baumannii). […] Culture plates were incubated for 18-24 h at 37° C., and optical density at 600 nm (OD600) was measured using a Benchmark Plus™ microplate spectrophotometer (Bio-Rad™). The absorbance control values for the series containing CAMHB and inhibitor were subtracted as background from the corresponding infected wells. The MIC was defined as the lowest concentration of test compound leading to complete inhibition of cell growth in relationship to compound-free control wells as determined by optical density. […] All assays were run in triplicate (Tables 1-6) or duplicate. Experiments were replicated at least twice to verify reproducibility using the above conditions.
(§3) The antimicrobial activity of selected compounds against the gram negative bacteria Klebsiella pneumoniae, Acinetobacter baumannii, E. coli, Pseudomonas aeruginosa and Salmonella typhimurium, as well as additional gram positive bacteria, including drug-resistant strains, was tested according to the procedures provided under “General Methodologies” above.

[1] = In vivo tolerability (MTD) study
Procedure: as §1
For tolerability studies, one animal from each group was administered the lowest dose first and then observed for 60 min. […] On the following day, the next higher dose was administered using the same procedure outlined above. Animals were euthanized 24 hours after the last injection, a cardiac puncture blood sample was collected and processed for plasma. Thigh muscle was collected and a necropsy performed.

MRSA MW2 (USA400) = assay: Broth microdilution MIC; type: cell-based; settings: Staphylococcus aureus; MRSA MW2 (USA400); read-out: MIC (μg/mL) G
Procedure: as §2, §3

P. aeruginosa (PA01) = assay: Broth microdilution MIC; type: cell-based; settings: Pseudomonas aeruginosa
Procedure: as §2, §3

[2] = tested on: A. baumannii (ATCC 19606); assay: Broth microdilution MIC; type: cell-based; settings: Acinetobacter baumannii, ATCC19606; A. baumannii (ATCC 19606); read-out: MIC (μg/mL) B
Procedure: as §2, §3

S. pyogenes (ATCC700294) = assay: Broth microdilution MIC; type: cell-based; settings: Streptococcus pyogenes
Procedure: as §2, §3

S. typhimurium (SL 1344) = assay: Broth microdilution MIC; type: cell-based; settings: Salmonella enterica
Procedure: as §2, §3

K. pneumoniae (C238) = assay: Broth microdilution MIC; type: cell-based; settings: Klebsiella pneumoniae; K. pneumoniae (C238); read-out: MIC (μg/mL) A
Procedure: as §2, §3

For O=C(c1c(-c2cc3cc(Cl)ccc3[nH]2)[nH]c2cc(Br)ccc12)C(F)(F)F [Compound 178, 1-(6-bromo-5′-chloro-1H,1′H-[2,2′-biindol]-3-yl)-2,2,2-trifluoroethan-1-one], which bioavailability (Pharmacokinetic study; 10 mg/kg, PO administration, read-out: bioavailability (% F)) is on record?
The bioavailability was 21%.

What about the Cmax (Pharmacokinetic study; IV administration at 3 mg/kg) of the same compound?
Its Cmax is 19000 ng/mL.

What about the half-life (Pharmacokinetic study; IV administration at 3 mg/kg) of the same compound?
Its half-life is 2.27 h.

What about the “log reduction in median counts for CFU/thigh” value (S. aureus ATCC 29123; all treated groups vs untreated control) of the same compound?
The value was no less than 1 log.

What about the “median CFU/thigh” value (S. aureus ATCC 29123; group 3, 3 mg/kg IV at 2 and 8 h) of the same compound?
Its value is 8.27×10^6 CFU/thigh.

And the “median CFU/thigh” value (S. aureus ATCC 29123; group 4, 10 mg/kg IV at 2 and 8 h)?
Its value is 1.38×10^3 CFU/thigh.

And the “median CFU/thigh” value (S. aureus ATCC 29123; group 5, PO 10 mg/kg at 2 and 8 h)?
Its value is 1.2×10^2 CFU/thigh.

What about the “log reduction in median counts” value (S. aureus ATCC 29123; group 5, PO 10 mg/kg vs untreated control) of the same compound?
The value was 6 log.

And the “CFU/thigh of one mouse dosed only once” value (S. aureus ATCC 29123; group 5, PO 10 mg/kg, single dose)?
Its value is 2.2×10^2 CFU/thigh.

And the MIC (VRE#2 (2010A))?
Its MIC is 1 µg/mL (≈ 2.26 µM).

What about the Tolerability ([1]; IV doses of 30 mg/kg) of the same compound?
The Tolerability was “well tolerated”.

What about the Tolerability ([1]; PO doses of 10 mg/kg) of the same compound?
The Tolerability was “well tolerated”.

What about the MIC (MRSA MW2 (USA400)) of the same compound?
The MIC was 0.5 µg/mL (≈ 1.13 µM).

What about the MIC (P. aeruginosa (PA01)) of the same compound?
The MIC was greater than 64 µg/mL.

What about the MIC [2] of the same compound?
The MIC was greater than 64 µg/mL.

What about the MIC (S. pyogenes (ATCC700294)) of the same compound?
Its MIC is 1 µg/mL (≈ 2.26 µM).

And the MIC (S. typhimurium (SL 1344))?
The MIC was greater than 64 µg/mL.

And the MIC (K. pneumoniae (C238))?
Its MIC is 1 µg/mL (≈ 2.26 µM).
